Key:
Homo sapiens = organism: Homo sapiens; assay: Inhibition of amyloid beta (17 to 42) (unknown origin) aggregation at 10 uM by thioflavin T-based fluorimetric assay
[1] = Inhibition of Tg2576 mouse amyloid beta40 aggregation measured after 3 days by ELISA

inhibition (Homo sapiens) [%]	IC50 [1] [nM]	Structure (SMILES)
0		CCN(CC)CCCCCCN1C(=O)c2ccccc2C1=O
	1000	COc1cc(/C=C/C(=O)CC(=O)/C=C/c2ccc(O)c(OC)c2)ccc1O [CURCUMIN]
10		O=C1c2ccccc2C(=O)N1CCCNC1CCN(Cc2ccccc2)CC1

Further lines, the compound ahead of its results:

Structure (SMILES)	inhibition (Homo sapiens) [%]	IC50 [1] [nM]
c1ccc(CN2CCC(NCCCCCCn3ccc4ccccc43)CC2)cc1	56	
O=C1c2ccccc2C(=O)N1CCCCCNCc1ccccc1	10	
CCN(CC)CCCCCCCN1C(=O)c2ccccc2C1=O	39.4	

From ChEMBL document CHEMBL3872251, “Computational approach for the assessment of inhibitory potency against beta-amyloid aggregation” (Bioorg Med Chem Lett, 2017)
